Experimental data taken from publication PMC10067842 (Scientific Reports, 2023).
Where “and” joins values, the source holds several entries; their conditions need not be identical. Equal entries are not always repeated. Entries after “also recorded” stand apart in the source; their conditions may differ. Where two headings read alike, the source gives them in different places.

Tests used:
[1] = target: T1, ORF3a channel of SARS-CoV-2 (Severe acute respiratory syndrome coronavirus 2, UniProt P0DTC3); test: cell-based; settings: for IC50: whole-cell currents, current differences at −60 mV, read-out: IC50, patch-clamp
T1 sequence (P0DTC3 1-275): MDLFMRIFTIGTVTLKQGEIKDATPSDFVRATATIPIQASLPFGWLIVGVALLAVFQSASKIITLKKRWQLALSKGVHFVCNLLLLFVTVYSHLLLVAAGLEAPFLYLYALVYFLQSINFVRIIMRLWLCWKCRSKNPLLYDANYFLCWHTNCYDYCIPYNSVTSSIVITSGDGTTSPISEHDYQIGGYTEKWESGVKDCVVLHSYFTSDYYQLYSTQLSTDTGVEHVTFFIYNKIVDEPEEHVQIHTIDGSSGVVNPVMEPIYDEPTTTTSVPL

[2] = system: HEK293 cells transfected with ORF3a; assay type: cell-based
[3] = target: T2, ORF3a viroporin of SARS-CoV-2 (Severe acute respiratory syndrome coronavirus 2, UniProt P0DTC3); settings: for activity against ORF3a (ORF3a-induced cytotoxicity): cell viability assay, result in words
[4] = system: SARS-CoV; settings: cited from earlier work
[5] = system: ORF3a of SARS-CoV; settings: Xenopus oocytes; cited from earlier work
[6] = system: HEK293 cells; test: MTT cell viability assay of control cells transfected with empty vector; assay type: cell-based; settings: 5 µM and higher (> 1 µM for ECGC), 10–20 µM
[7] = target: T2, ORF3a viroporin of SARS-CoV-2; test: cell-based; settings: IC50, reversing viroporin-induced cell damage
[8] = system: ORF3a of SARS-CoV; settings: cited from earlier work
[9] = system: HCoV-OC43; settings: cited from earlier work
[10] = current–voltage recordings, result in words

Row | Compound | activity against ORF3a channel in patch-clamp [1, 10] | activity against ORF3a (ORF3a-induced cytotoxicity) [3] | IC50 [1] | IC50 [7] | further results
1 | CCCCC[C@H](O)CC(=O)CCc1ccc(O)c(OC)c1 [6-gingerol] | inactive | inactive | – | – | morphology of ORF3a-transfected cells after treatment [2]: morphology of dying cells; activity in the same expression system ([4]; Vero E6 cells): only low activity
2 | O=c1c(-c2ccc(O)cc2)coc2cc(O)cc(O)c12 [genistein] | – | inactive | – | – | inhibition of ORF3a activity of SARS-CoV [5]: do not
3 | COc1ccc(-c2cc(=O)c3c(OC)c(OC)c(OC)c(OC)c3o2)cc1OC [nobiletin] | confirmed the inhibitory activity | inhibitory activity | 1.8 ± 0.3 nM | 3.8 ± 0.9 µM | effect on viability of control cells (cytotoxic or proliferative effects) [6]: increased cell proliferation; also recorded: increased cell viability; activity against ORF3a (ORF3a-induced cytotoxicity) ([3]; listed as Nobiletin): potent activity
4 | Cc1cc(O)c2c(c1)C(=O)c1cc(O)cc(O)c1C2=O [emodin] | – | – | – | – | inhibition of ORF3a of SARS-CoV [8]: inhibitor; virus release [9]: able to repress virus release
5 | Oc1ccc(/C=C/c2cc(O)cc(O)c2)cc1 [resveratrol] | confirmed the inhibitory activity | inhibitory activity | 1.5 ± 0.1 nM | 6.7 µM and 6.73 µM | Percentage inhibition from MTT data at the highest inhibitor concentration ([3]; Fig. 4D): 86%
6 | O=c1c(O)c(-c2ccc(O)c(O)c2)oc2cc(O)cc(O)c12 [quercetin] | confirmed the inhibitory activity | inhibitory activity | 3.9 ± 0.7 nM | 2.5 ± 0.2 µM | effect on viability of control cells (cytotoxic or proliferative effects) [6]: increased cell proliferation; effect on viability of control cells (cytotoxic or proliferative effects) ([6]; listed as Quercetin): increased cell viability
7 | O=c1cc(-c2ccc(O)cc2)oc2cc(O)cc(O)c12 [apigenin] | – | inactive | – | – | –
8 | epigallocatechin gallate [EGCG] | confirmed the inhibitory activity | inhibitory activity | 0.7 ± 0.1 nM | – | effect on viability of control cells (cytotoxic or proliferative effects) [6]: increased cell proliferation; also recorded: increased cell viability; morphology of ORF3a-transfected cells after treatment [2]: healthy cells with normal morphology; IC50 ([3]; read-out: IC50, reversing viroporin-induced cell damage): 1600 nM and 1560 nM
9 | COc1cc(/C=C/C(=O)CC(=O)/C=C/c2ccc(O)c(OC)c2)ccc1O [curcumin] | – | – | – | – | activity against ORF3a channel in patch-clamp [1]: confirmed the inhibitory activity; Percentage inhibition from MTT data at the highest inhibitor concentration [3]: 72%; inhibition of viral replication ([4]; SARS-CoV infected Vero E6 cells): effectively inhibited viral replication
10 | NC12CC3CC(CC(C3)C1)C2 [amantadine, reference compound] | – | – | 4.5 ± 0.2 nM | 43.7 ± 11.1 µM | Percentage inhibition from MTT data at the highest inhibitor concentration ([3]; Fig. 4D): 78%
11 | CC(N)C12CC3CC(CC(C3)C1)C2 (stereo not shown) [rimantadine, reference compound] | – | – | – | 4.4 ± 1.3 µM | potency of rimantadine higher than that of amantadine ([1]; patch clamp experiments): approximately fourfold; potency of rimantadine higher than that of amantadine ([3]; cell viability assays): ~ tenfold
12 | O=C1C[C@@H](c2ccc(O)cc2)Oc2cc(O)cc(O)c21 [naringenin] | – | inactive | – | – | inhibition of ORF3a activity of SARS-CoV [5]: do not
13 | O=c1c(O)c(-c2ccc(O)cc2)oc2cc(O)cc(O)c12 [kaempferol] | – | inhibitory activity | 2.4 ± 0.5 nM | 5.2 µM and 5.23 µM | –
